Peptide text beside a SMILES is read from it.
Tests used:
[1] = Binding affinity to gamma (312-324) epitope of human fibrinogen measured at flow rate of 30 ul/min by Biacore X system
[2] = Binding affinity to gamma (312-324) epitope of human fibrinogen by Biacore X system
[3] = Binding affinity to gamma (312-324) epitope of human fibrinogen measured at flow rate of 5 ul/min by Biacore X system

Compound	Kd [1] [µM]	Kd [2] [µM]	Kd [3] [µM]
N=C(N)NCCC[C@H](NC(=O)[C@H](CC(=O)O)NC(=O)[C@@H](N)CCCCN)C(N)=O (H-Lys-Asp-Arg-NH2)	16.2	34.4	52.6
N=C(N)NCCC[C@H](NC(=O)[C@H](CCC(=O)O)NC(=O)[C@@H](N)CCCCN)C(N)=O (H-Lys-Glu-Arg-NH2)	21.9	17.5	13
NCCCC[C@H](NC(=O)[C@H](CCC(=O)O)NC(=O)[C@@H](N)CCCCN)C(N)=O (H-Lys-Glu-Lys-NH2)	15	25	35
Ac-RDKDR-OH	16.8	23.6	30.4
H-RDKDR-NH2	0.2	0.25	0.3

— ChEMBL document CHEMBL1137745, “Computational modeling and surface plasmon resonance analyses in the assessment of peptide ligands interacting with fibrin gamma(312-324) epitope” (Eur J Med Chem, 2009)
